System: CJLP17 strain
Assay: Antibiotic susceptibility test with antibiotic discs
Type: cell-based, Lactobacillus plantarum
Conditions: antibiotic disc on CJLP17 lawn, Mueller Hinton II medium, 37° C., 24 hours
Description: The CJLP17 strain was inoculated into a liquid MRS medium and subjected to a static culture at 37° C. for 24 hours. The thus-cultured bacteria were soaked in sterilized cotton swabs and smeared on a solid Mueller Hinton II medium (Difco), and then antibiotic discs were placed on the medium and incubated at 37° C. for 24 hours. Ampicillin, clindamycin, gentamicin, kanamycin, erythromycin, ampicillin/sulbactam, chloramphenicol, and streptomycin discs (Oxoid, UK) were used as antibiotic discs for the antibiotic test.

Q: With “Ampicillin/Sulbactam [SAM20 (Ampicillin/Sulbactam)]” as the compound, how does the “Radius of Growth Inhibition Area Centered Around Antibiotics” value read?
A: 7 mm

Q: Which “Radius of Growth Inhibition Area Centered Around Antibiotics” value does the source give for `CC1(C)S[C@@H]2[C@H](NC(=O)[C@H](N)c3ccccc3)C(=O)N2[C@H]1C(=O)O` [Amp10 (Ampicillin), Ampicillin] here?
A: 7.5 mm

Q: `[H]/N=C(/N)N[C@H]1[C@H](O)[C@@H](O)[C@H](O[C@@H]2O[C@@H](C)[C@](O)(C=O)[C@H]2O[C@@H]2O[C@@H](CO)[C@H](O)[C@@H](O)[C@@H]2NC)[C@@H](N/C(N)=N\[H])[C@@H]1O` [DA2 (Streptomycin), Streptomycin] was tested. Which “Radius of Growth Inhibition Area Centered Around Antibiotics” value did it give?
A: 4.5 mm

Q: Which “Radius of Growth Inhibition Area Centered Around Antibiotics” value does the source give for `NC[C@H]1O[C@H](O[C@H]2[C@H](O)[C@@H](O[C@H]3O[C@H](CO)[C@@H](O)[C@H](N)[C@H]3O)[C@H](N)C[C@@H]2N)[C@H](O)[C@@H](O)[C@@H]1O` [K30 (Kanamycin), Kanamycin] here?
A: 1.5 mm

Q: How did the “Radius of Growth Inhibition Area Centered Around Antibiotics” value turn out when `O=C(N[C@H](CO)[C@H](O)c1ccc([N+](=O)[O-])cc1)C(Cl)Cl` [S10 (Chloramphenicol), Chloramphenicol] was run?
A: 3.5 mm

Q: How did the “Radius of Growth Inhibition Area Centered Around Antibiotics” value turn out when Gentamicin [CN120 (Gentamicin)] was run?
A: 5 mm

Q: `CC[C@H]1OC(=O)[C@H](C)[C@@H](O[C@H]2C[C@@](C)(OC)[C@@H](O)[C@H](C)O2)[C@H](C)[C@@H](O[C@@H]2O[C@H](C)C[C@H](N(C)C)[C@H]2O)[C@](C)(O)C[C@@H](C)C(=O)[C@H](C)[C@@H](O)[C@]1(C)O` [E15 (Erythromycin), Erythromycin] was tested. Which “Radius of Growth Inhibition Area Centered Around Antibiotics” value did it give?
A: 12 mm

Q: With `CCC[C@@H]1C[C@@H](C(=O)N[C@@H]([C@H]2O[C@H](SC)[C@H](O)[C@@H](O)[C@H]2O)[C@H](C)Cl)N(C)C1` [C30 (Clindamycin), Clindamycin] as the compound, how does the “Radius of Growth Inhibition Area Centered Around Antibiotics” value read?
A: 7 mm
